Data: ChEMBL document CHEMBL3390836, “Mannich- and LedererManasse-based analogues of the natural product S-(+)-curcuphenol as cancer proliferation and migration inhibitors” (Medchemcomm, 2012)

Assays:
[1] = system: 786-0; test: Cytotoxicity against human 786-0 cells assessed as cell growth at 10 uM after 48 hrs by SRB assay relative to control; assay type: functional; conditions: 786-0, 48 h, read-out: Activity
[2] = system: SK-MEL-2; test: Cytotoxicity against human SK-MEL-2 cells assessed as cell growth at 10 uM after 48 hrs by SRB assay relative to control; assay type: functional; conditions: SK-MEL-2, 48 h, read-out: Activity
[3] = system: KM12; test: Cytotoxicity against human KM12 cells assessed as cell growth at 10 uM after 48 hrs by SRB assay relative to control; assay type: functional; conditions: KM12, 48 h, read-out: Activity
[4] = system: HT-29; test: Cytotoxicity against human HT-29 cells assessed as cell growth at 10 uM after 48 hrs by SRB assay relative to control; assay type: functional; conditions: HT-29, 48 h, read-out: Activity
[5] = Cytotoxicity against human SKOV3 cells assessed as cell growth at 10 uM after 48 hrs by SRB assay relative to control; assay type: functional; conditions: SK-OV-3, 48 h, read-out: Activity
[6] = system: SNB-75; test: Cytotoxicity against human SNB75 cells assessed as cell growth at 10 uM after 48 hrs by SRB assay relative to control; assay type: functional; conditions: SNB-75, 48 h, read-out: Activity
[7] = Cytotoxicity against human HCT116 cells assessed as cell growth at 10 uM after 48 hrs by SRB assay relative to control; assay type: functional; conditions: HCT-116, 48 h, read-out: Activity
[8] = system: SK-MEL-5; test: Cytotoxicity against human SK-MEL-5 cells assessed as cell growth at 10 uM after 48 hrs by SRB assay relative to control; assay type: functional; conditions: SK-MEL-5, 48 h, read-out: Activity
[9] = system: NCI-H226; test: Cytotoxicity against human NCI-H226 cells assessed as cell growth at 10 uM after 48 hrs by SRB assay relative to control; assay type: functional; conditions: NCI-H226, 48 h, read-out: Activity
[10] = system: CCRF-CEM; test: Cytotoxicity against human CCRF-CEM cells assessed as cell growth at 10 uM after 48 hrs by SRB assay relative to control; assay type: functional; conditions: read-out: Activity
[11] = system: M14; test: Cytotoxicity against human M14 cells assessed as cell growth at 10 uM after 48 hrs by SRB assay relative to control; assay type: functional; conditions: M14, 48 h, read-out: Activity
[12] = system: LOX IMVI; test: Cytotoxicity against human LOXIMVI cells assessed as cell growth at 10 uM after 48 hrs by SRB assay relative to control; assay type: functional; conditions: read-out: Activity
[13] = system: SF-295; test: Cytotoxicity against human SF295 cells assessed as cell growth at 10 uM after 48 hrs by SRB assay relative to control; assay type: functional; conditions: SF-295, 48 h, read-out: Activity
[14] = system: SK-MEL-28; test: Cytotoxicity against human SK-MEL-28 cells assessed as cell growth at 10 uM after 48 hrs by SRB assay relative to control; assay type: functional; conditions: SK-MEL-28, 48 h, read-out: Activity
[15] = Cytotoxicity against human NCI-ADR-RES cells assessed as cell growth at 10 uM after 48 hrs by SRB assay relative to control; assay type: functional; conditions: read-out: Activity
[16] = system: IGROV-1; test: Cytotoxicity against human IGROV1 cells assessed as cell growth at 10 uM after 48 hrs by SRB assay relative to control; assay type: functional; conditions: IGROV-1, 48 h, read-out: Activity
[17] = Cytotoxicity against human UO31 cells assessed as cell growth at 10 uM after 48 hrs by SRB assay relative to control; assay type: functional; conditions: UO-31, 48 h, read-out: Activity
[18] = system: MOLT-4; test: Cytotoxicity against human MOLT4 cells assessed as cell growth at 10 uM after 48 hrs by SRB assay relative to control; assay type: functional; conditions: MOLT-4, 48 h, read-out: Activity
[19] = system: SF-539; test: Cytotoxicity against human SF539 cells assessed as cell growth at 10 uM after 48 hrs by SRB assay relative to control; assay type: functional; conditions: SF-539, 48 h, read-out: Activity
[20] = system: A498; test: Cytotoxicity against human A498 cells assessed as cell growth at 10 uM after 48 hrs by SRB assay relative to control; assay type: functional; conditions: A498, 48 h, read-out: Activity
[21] = Cytotoxicity against human OVCAR3 cells assessed as cell growth at 10 uM after 48 hrs by SRB assay relative to control; assay type: functional; conditions: OVCAR-3, 48 h, read-out: Activity
[22] = system: RXF 393; test: Cytotoxicity against human RXF393 cells assessed as cell growth at 10 uM after 48 hrs by SRB assay relative to control; assay type: functional; conditions: RXF 393, 48 h, read-out: Activity
[23] = system: A549; test: Cytotoxicity against human A549 cells assessed as cell growth at 10 uM after 48 hrs by SRB assay relative to control; assay type: functional; conditions: A549, 48 h, read-out: Activity
[24] = system: MCF7; test: Cytotoxicity against human MCF7 cells assessed as cell growth at 10 uM after 48 hrs by SRB assay relative to control; assay type: functional; conditions: MCF7, 48 h, read-out: Activity
[25] = system: COLO 205; test: Cytotoxicity against human COLO205 cells assessed as cell growth at 10 uM after 48 hrs by SRB assay relative to control; assay type: functional; conditions: COLO 205, 48 h, read-out: Activity
[26] = system: MDA-MB-231; test: Growth inhibition of human MDA-MB-231 cells after 72 hrs by MTT assay; assay type: functional, cell-based; conditions: MDA-MB-231, 72 h
[27] = system: HL-60(TB); test: Cytotoxicity against human HL-60(TB) cells assessed as cell growth at 10 uM after 48 hrs by SRB assay relative to control; assay type: functional; conditions: HL-60, 48 h, read-out: Activity
[28] = system: MDA-MB-231; test: Cytotoxicity against human MDA-MB-231 cells assessed as cell growth at 10 uM after 48 hrs by SRB assay relative to control; assay type: functional; conditions: MDA-MB-231, 48 h, read-out: Activity
[29] = system: T47D; test: Cytotoxicity against human T47D cells assessed as cell growth at 10 uM after 48 hrs by SRB assay relative to control; assay type: functional; conditions: read-out: Activity
[30] = system: NCI-H23; test: Cytotoxicity against human NCI-H23 cells assessed as cell growth at 10 uM after 48 hrs by SRB assay relative to control; assay type: functional; conditions: NCI-H23, 48 h, read-out: Activity
[31] = system: SW-620; test: Cytotoxicity against human SW620 cells assessed as cell growth at 10 uM after 48 hrs by SRB assay relative to control; assay type: functional; conditions: SW-620, 48 h, read-out: Activity
[32] = system: ACHN; test: Cytotoxicity against human ACHN cells assessed as cell growth at 10 uM after 48 hrs by SRB assay relative to control; assay type: functional; conditions: read-out: Activity
[33] = system: MDA-MB-468; test: Cytotoxicity against human MDA-MB-468 cells assessed as cell growth at 10 uM after 48 hrs by SRB assay relative to control; assay type: functional; conditions: MDA-MB-468, 48 h, read-out: Activity
[34] = Cytotoxicity against human EKVX cells assessed as cell growth at 10 uM after 48 hrs by SRB assay relative to control; assay type: functional; conditions: read-out: Activity
[35] = Cytotoxicity against human UACC62 cells assessed as cell growth at 10 uM after 48 hrs by SRB assay relative to control; assay type: functional; conditions: UACC-62, 48 h, read-out: Activity
[36] = system: MCF7; test: Growth inhibition of human MCF7 cells after 72 hrs by MTT assay; assay type: functional, cell-based; conditions: MCF7, 72 h

CC(C)=CCC[C@H](C)c1ccc(C)c(CNCCCCCO)c1O
growth at 10 µM [1]: 87.3% | growth at 10 µM [2]: 97.6% | growth at 10 µM [3]: 97.3% | growth at 10 µM [4]: 55% | growth at 10 µM [5]: 99.4% | growth at 10 µM [6]: 77.2% | growth at 10 µM [7]: 78% | growth at 10 µM [8]: 84.9% | growth at 10 µM [9]: 99.6% | growth at 10 µM [10]: 96.5% | growth at 10 µM [11]: 94.3% | growth at 10 µM [12]: 83.1% | growth at 10 µM [13]: 108% | growth at 10 µM [14]: 112% | growth at 10 µM [15]: 86.8% | growth at 10 µM [16]: 91.1% | growth at 10 µM [17]: 54.9% | growth at 10 µM [18]: 83.1% | growth at 10 µM [19]: 92.1% | growth at 10 µM [20]: 82.6% | growth at 10 µM [21]: 84.2% | growth at 10 µM [22]: 84.6% | growth at 10 µM [23]: 91.5% | growth at 10 µM [24]: 79.4% | growth at 10 µM [25]: 105% | IC50 [26]: 10.7 µM | growth at 10 µM [27]: 87.7% | growth at 10 µM [28]: 96.5% | growth at 10 µM [29]: 99.1% | growth at 10 µM [30]: 92.5% | growth at 10 µM [31]: 91.9% | growth at 10 µM [32]: 97.7% | growth at 10 µM [33]: 79.8% | growth at 10 µM [34]: 90.5% | growth at 10 µM [35]: 94.2% | IC50 [36]: 7.6 µM

CC(C)=CCC[C@H](C)c1ccc(C)c2c1OCN(CCCCC(=O)O)C2
growth at 10 µM [1]: 82.6% | growth at 10 µM [2]: 84% | growth at 10 µM [3]: 107% | growth at 10 µM [4]: 83.3% | growth at 10 µM [5]: 104% | growth at 10 µM [6]: 91.8% | growth at 10 µM [7]: 88.6% | growth at 10 µM [8]: 92% | growth at 10 µM [9]: 95.7% | growth at 10 µM [10]: 93.2% | growth at 10 µM [11]: 92.5% | growth at 10 µM [12]: 90.2% | growth at 10 µM [13]: 102% | growth at 10 µM [14]: 115% | growth at 10 µM [15]: 85.3% | growth at 10 µM [16]: 108% | growth at 10 µM [17]: 69.7% | growth at 10 µM [18]: 102% | growth at 10 µM [19]: 91.8% | growth at 10 µM [20]: 99.4% | growth at 10 µM [21]: 112% | growth at 10 µM [22]: 102% | growth at 10 µM [23]: 101% | growth at 10 µM [24]: 92.5% | growth at 10 µM [25]: 110% | IC50 [26]: > 50 µM | growth at 10 µM [27]: 77.5% | growth at 10 µM [28]: 91.8% | growth at 10 µM [29]: 95.4% | growth at 10 µM [30]: 95.1% | growth at 10 µM [31]: 101% | growth at 10 µM [32]: 98.8% | growth at 10 µM [33]: 87% | growth at 10 µM [34]: 102% | growth at 10 µM [35]: 79.7% | IC50 [36]: > 20 µM

CC(C)=CCC[C@H](C)c1ccc(C)c(CNCCCCC(=O)O)c1O
growth at 10 µM [1]: 100% | growth at 10 µM [2]: 104% | growth at 10 µM [3]: 102% | growth at 10 µM [4]: 101% | growth at 10 µM [5]: 105% | growth at 10 µM [6]: 95.4% | growth at 10 µM [7]: 101% | growth at 10 µM [8]: 98.4% | growth at 10 µM [9]: 91.1% | growth at 10 µM [10]: 97.9% | growth at 10 µM [11]: 113% | growth at 10 µM [12]: 95% | growth at 10 µM [13]: 101% | growth at 10 µM [14]: 109% | growth at 10 µM [15]: 103% | growth at 10 µM [16]: 105% | growth at 10 µM [17]: 81.9% | growth at 10 µM [18]: 95.1% | growth at 10 µM [19]: 111% | growth at 10 µM [20]: 92.3% | growth at 10 µM [21]: 108% | growth at 10 µM [22]: 121% | growth at 10 µM [23]: 95.8% | growth at 10 µM [24]: 101% | growth at 10 µM [25]: 119% | IC50 [26]: > 50 µM | growth at 10 µM [27]: 84.6% | growth at 10 µM [28]: 97.6% | growth at 10 µM [29]: 113% | growth at 10 µM [30]: 98.8% | growth at 10 µM [31]: 98.3% | growth at 10 µM [32]: 102% | growth at 10 µM [33]: 100% | growth at 10 µM [34]: 97.9% | growth at 10 µM [35]: 92.3% | IC50 [36]: > 20 µM
